Assays:
human CB1 receptor = target: T1, human CB1 receptor (Homo sapiens, UniProt P21554); experiment: competitive radioligand binding assay, displacement of [3H]CP55,940, CB1; settings: for IC50: displacement of specific [3H]-CP55940 binding in HEK 293 cells stably transfected with human CB1 receptor
T1 construct: expressed in transfected cells; membrane-enriched fractions
Method: (§1) In addition, the affinity of test compounds of this invention toward CB1 and CB2 receptors was determined by competitive radioligand binding assays in vitro. This method differentiates the binding strength between compounds by their abilities in displacing a receptor-specific radioactive ligand. […] The readings of the radioactivity retained allow further analysis of receptor binding, and assist in predictions of the pharmacological activities of the test compounds.
(§2) In the assays, CB1 receptors are from human CB1 stably expressed cell lines, and CB2 receptors are from human CB2 stably expressed cell lines. For purification of membrane-enriched fractions, cells were scraped off from the culture dishes in ice-cold buffer A (50 mM Tris, 5 mM MgCl2, 2.5 mM EDTA, pH 7.4, 10% sucrose) with 1 mM PMSF. After sonication, the membrane-enriched fractions were centrifuged for 15 minutes at 2,000×g at 4° C. The supernatant was centrifuged again for 30 minutes at 43,000×g at 4° C. The final pellet was re-suspended in buffer A and stored at −80° C. The protein concentration of the purified membrane was determined by the Bradford method as described by the manual provided by Bio-Rad Laboratories, Inc., Hercules, Calif.
(§3) During the receptor binding experiments, 0.2˜8 μg of membrane fractions were incubated with 0.75 nM [^3H]CP55,940 and a test compound in the incubation buffer of 50 mM Tris-HCl, 5 mM MgCl2, 1 mM EDTA, 0.3% BSA, pH 7.4. The non-specific binding was determined by using 1 μM of CP55,940. The mixture was incubated for 1.5 hours at 30° C. in Multiscreen microplates (Millipore, Billerica, Mass.). At the completion of the incubation, the reaction was terminated by Manifold filtration and washed with ice-cold wash buffer (50 mM Tris, pH 7.4, 0.25% BSA) four times. The radioactivity bound to the filters was measured by Topcount (Perkin Elmer Inc.).

human CB2 receptor = target: T2, human CB2 receptor (Homo sapiens, UniProt P34972); experiment: competitive radioligand binding assay, displacement of [3H]CP55,940, CB2; settings: cells printed in μM
T2 construct: expressed in transfected cells; membrane-enriched fractions
Method: as §1, §2, §3

[1] = Table 2, percent inhibition at 10 μM
[2] = Table 1, percent inhibition at 10 μM

T1 sequence (P21554 whole entry): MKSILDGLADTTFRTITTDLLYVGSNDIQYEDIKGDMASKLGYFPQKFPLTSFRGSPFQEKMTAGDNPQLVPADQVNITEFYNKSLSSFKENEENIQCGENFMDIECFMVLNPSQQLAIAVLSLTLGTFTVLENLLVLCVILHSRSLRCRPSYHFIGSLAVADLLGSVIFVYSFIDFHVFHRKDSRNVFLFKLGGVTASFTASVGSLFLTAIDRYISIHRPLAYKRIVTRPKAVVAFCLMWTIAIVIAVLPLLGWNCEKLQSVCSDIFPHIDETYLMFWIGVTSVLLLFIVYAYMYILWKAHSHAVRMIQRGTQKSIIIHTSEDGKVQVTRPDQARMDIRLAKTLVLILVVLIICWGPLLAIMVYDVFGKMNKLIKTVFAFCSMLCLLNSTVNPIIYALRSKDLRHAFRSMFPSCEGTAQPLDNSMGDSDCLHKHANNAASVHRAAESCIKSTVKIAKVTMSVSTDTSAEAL
T2 sequence (P34972 whole entry): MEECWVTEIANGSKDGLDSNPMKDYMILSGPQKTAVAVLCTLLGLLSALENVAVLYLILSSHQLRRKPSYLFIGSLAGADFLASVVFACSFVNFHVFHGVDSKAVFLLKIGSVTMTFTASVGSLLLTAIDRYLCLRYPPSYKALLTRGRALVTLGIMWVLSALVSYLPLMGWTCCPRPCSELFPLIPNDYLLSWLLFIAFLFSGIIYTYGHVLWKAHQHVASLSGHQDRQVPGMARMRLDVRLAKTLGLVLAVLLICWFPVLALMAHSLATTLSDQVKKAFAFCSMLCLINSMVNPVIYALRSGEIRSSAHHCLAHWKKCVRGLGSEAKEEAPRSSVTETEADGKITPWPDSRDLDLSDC

Compound | IC50 (human CB1 receptor) [nM] | IC50 (human CB2 receptor) [µM] | inhibition at 10 µM (human CB1 receptor; [1]) [%] | CB1 Inhibition (%) (10 μM) (human CB1 receptor; Table 2, percent inhibition at 10 μM, 10 µM) | inhibition at 10 µM (human CB1 receptor; [2]) [%]
O=C(Cn1nc(-c2ccc(Cl)cc2Cl)c(-c2ccc(Cl)cc2Cl)n1)NCc1ccccc1Cl [Compound 191] | 48.9 ± 12 | > 10 | – | – | –
O=C(Cn1nc(-c2ccc(Cl)cc2Cl)c(-c2ccc(Cl)cc2Cl)n1)NCc1cccc(F)c1 [Compound 170] | 25.7 ± 2.9 | > 10 | – | – | –
O=C(Cn1nc(-c2ccc(Cl)cc2Cl)c(-c2ccc(Cl)cc2Cl)n1)NCc1ccc(Cl)cc1 [Compound 192] | 64.8 ± 10.5 | > 10 | – | – | –
O=C(Cn1nc(-c2ccc(Cl)cc2)c(-c2ccc(Cl)cc2Cl)n1)NCc1cc(F)ccc1F [Compound 165] | 152 ± 71 | > 10 | 89.8 | – | –
Cc1cccc(CNC(=O)Cn2nc(-c3ccc(Cl)cc3Cl)c(-c3ccc(Cl)cc3Cl)n2)c1 [Compound 188] | 51.7 ± 15.5 | > 10 | – | – | –
O=C(Cn1nc(-c2ccc(Cl)cc2)c(-c2ccc(Cl)cc2Cl)n1)NCc1ccccc1 [Compound 168] | 204 ± 78.1 | > 10 | 93.9 | – | –
COc1ccc(CNC(=O)Cn2nc(-c3ccc(Cl)cc3Cl)c(-c3ccc(Cl)cc3Cl)n2)cc1 [Compound 146] | 81.9 ± 44.2 | > 10 | 94.8 | – | –
O=C(Cn1nc(-c2ccc(Cl)cc2)c(-c2ccc(Cl)cc2Cl)n1)NCc1ccc(F)cc1 [Compound 162] | 449 ± 67.9 | > 10 | 90.5 | – | –
O=C(Cn1nc(-c2ccc(Cl)cc2Cl)c(-c2ccc(Cl)cc2Cl)n1)NC1CCCCC1 [Compound 125] | 144 ± 110 | > 10 | – | 91.40 | –
O=C(Cn1nc(-c2ccc(Cl)cc2Cl)c(-c2ccc(Cl)cc2Cl)n1)NCc1ccc(F)cc1F [Compound 190] | 45.9 ± 18.4 | > 10 | – | – | –
CCCCOC(=O)Cn1nc(-c2ccc(Cl)cc2Cl)c(-c2ccc(Cl)cc2Cl)n1 [Compound 111] | 1170 ± 263 | > 10 | 90.3 | – | –
O=C(Cn1nc(-c2ccc(Cl)cc2Cl)c(-c2ccc(Cl)cc2Cl)n1)NCc1ccc(F)c(F)c1 [Compound 198] | 82.9 ± 7 | > 10 | – | – | –
O=C(Cn1nc(-c2ccc(Cl)cc2Cl)c(-c2ccc(Cl)cc2Cl)n1)NCc1ccccc1 [Compound 122] | 66.9 ± 8.9 | > 10 | 99.3 | – | –
CC(NC(=O)Cn1nc(-c2ccc(Cl)cc2Cl)c(-c2ccc(Cl)cc2Cl)n1)c1ccccc1 (stereo not drawn) [Compound 202] | 48 ± 11.1 | > 10 | – | – | –
O=C(Cn1nc(-c2ccc(Cl)cc2Cl)c(-c2ccc(Cl)cc2Cl)n1)NCc1ccc(F)cc1 [Compound 171] | 11.6 ± 3.4 | > 10 | – | – | –
O=C(Cn1nc(-c2ccc(Cl)cc2)c(-c2ccc(Cl)cc2Cl)n1)NCc1ccccc1F [Compound 160] | 262 ± 184 | > 10 | 88.2 | – | –
O=C(Cn1nc(-c2ccc(Cl)cc2Cl)c(-c2ccc(Cl)cc2Cl)n1)N1CCOCC1 [Compound 131] | 71.9 ± 16.5 | – | 84.2 | – | –
O=C(Cn1nc(-c2ccc(Cl)cc2Cl)c(-c2ccc(Cl)cc2Cl)n1)NCc1cc(F)ccc1F [Compound 184] | 22 ± 6.1 | > 10 | – | – | –
O=C(Cn1nc(-c2ccc(Cl)cc2)c(-c2ccc(Cl)cc2Cl)n1)NC1CCCCC1 [Compound 138] | 1700 ± 425 | – | – | – | –
CCN(CC)C(=O)Cn1nnc(-c2ccccc2)c1-c1ccccc1 [Compound 2] | – | – | – | – | 22.6
CCCCCCNC(=O)n1nc(-c2ccc(Cl)cc2)c(-c2ccc(Cl)cc2)n1 [Compound 81] | – | – | 41.5 | – | –
CCCCCCCCNC(=O)NNC(=O)Cn1nnc(-c2ccc(Cl)cc2)c1-c1ccc(Cl)cc1 [Compound 49] | – | – | – | – | 30.3
CCCCOC(=O)Cn1nnc(-c2cccc(C)c2)c1-c1cccc(C)c1 [Compound 63] | – | – | – | – | 9.9
CCCCCOC(=O)Cn1nc(-c2ccc(Cl)cc2Cl)c(-c2ccc(Cl)cc2Cl)n1 [Compound 116] | 2800 ± 544 | – | 76.5 | – | –
